Experimental findings from patent publication US20260001928A1 (CORTERIA PHARMACEUTICALS, priority 2022, published 2026) are described below.

*1 amine or outer side, *2 acyl side, *3 side chain or, on linkers, in order; H or OH if unused. Where a SMILES comes first, the peptide text is derived from it. Side-chain parts run from the residue outwards. [ ]: non-standard residue; d: D form. The star is where a group is joined. C20 diacid = O=C(O)CCCCCCCCCCCCCCCCCCC(=O)*; γGlu = O=C(O)[C@H](CCC(=O)[*:2])N[*:1]; NMeI = CC[C@H](C)[C@H](NC)C(=O)O; Myristoyl = CCCCCCCCCCCCCC(=O)*; Lauroyl = CCCCCCCCCCCC(=O)*; Pentanoyl = CCCCC(=O)*; Aib = CC(C)(N)C(=O)O

Assay [1] has as its target T1, CFR1R receptor (Homo sapiens, UniProt P34998).
T1 construct: host or cells: CHO-K1 (clone 2)
T1 sequence (P34998 24-415): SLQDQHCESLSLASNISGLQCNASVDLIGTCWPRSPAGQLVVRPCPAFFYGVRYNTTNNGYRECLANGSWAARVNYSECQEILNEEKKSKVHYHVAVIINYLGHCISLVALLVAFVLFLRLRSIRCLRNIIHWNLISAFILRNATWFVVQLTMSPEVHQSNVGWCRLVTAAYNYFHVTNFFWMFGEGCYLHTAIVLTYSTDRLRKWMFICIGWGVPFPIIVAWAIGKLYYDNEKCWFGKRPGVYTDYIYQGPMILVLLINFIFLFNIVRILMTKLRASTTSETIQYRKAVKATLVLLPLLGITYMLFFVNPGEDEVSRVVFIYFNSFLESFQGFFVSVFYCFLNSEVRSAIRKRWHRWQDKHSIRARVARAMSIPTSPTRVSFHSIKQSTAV
In words: Activity at anti-target CFR1R receptor, cAMP assay in CRF1R-overexpression CHO-K1 cells. Format: cell-based. The following applies: 100% = Sauvagine at 100 nM. An outline of the steps:
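Grow clone 2 to near confluence at 37° C. under 5% CO2 in F12 (Hams) with 10% FBS and G418, harvest, and freeze in 10% DMSO. Thaw and plate at 4000 cells/well. Then proceed per the TeloHAEC method, normalising to Sauvagine 100 nM as maximum.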

For assay [2], the target named is T2, human CRF2a receptor (Homo sapiens, UniProt Q13324).
T2 construct: expressed in transfected cells; host or cells: TeloHEAC cells
T2 sequence (Q13324 1-411): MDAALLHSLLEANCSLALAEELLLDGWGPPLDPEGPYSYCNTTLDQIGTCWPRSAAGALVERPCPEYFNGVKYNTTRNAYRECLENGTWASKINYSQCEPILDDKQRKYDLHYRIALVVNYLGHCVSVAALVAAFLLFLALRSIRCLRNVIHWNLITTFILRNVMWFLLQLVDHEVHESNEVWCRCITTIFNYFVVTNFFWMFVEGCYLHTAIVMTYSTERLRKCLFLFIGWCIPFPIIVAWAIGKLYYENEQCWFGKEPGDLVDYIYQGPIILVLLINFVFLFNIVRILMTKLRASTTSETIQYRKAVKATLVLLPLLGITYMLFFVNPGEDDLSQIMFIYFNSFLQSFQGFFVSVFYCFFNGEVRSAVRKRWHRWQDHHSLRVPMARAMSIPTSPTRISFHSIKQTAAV
In words: Activity at human CRF2a receptor, cAMP functional assay in TeloHEAC cells. Format: cell-based. The following applies: TeloHEAC cells stably expressing human CRF2a receptor, relative to urocortin 2 (100 nM = 100%). The method, boiled down:
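TeloHEAC cells stably expressing human CRF2a (10000 cells/well, suspended in HBSS/20 mM HEPES with 2 mM IBMX) were exposed to compounds for 30 min at 37 °C. cAMP was read as the 665/620 nm fluorescence ratio after 1 h at room temperature. EC50 was derived relative to 100 nM urocortin 2, set as 100%.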

On to `CC[C@H](C)[C@H](NC)C(=O)N[C@H](C(=O)N[C@@H](CC(C)C)C(=O)N[C@@H](CO)C(=O)N[C@@H](CC(C)C)C(=O)N[C@@H](CC(=O)O)C(=O)N[C@@H](C(=O)N1CCC[C@H]1C(=O)N[C@H](C(=O)N[C@@H](CCCCN)C(=O)N[C@@H](CC(C)C)C(=O)N[C@@H](CCCCNC(=O)CC[C@H](NC(=O)CCCCCCCCCCCCCCCCCCC(=O)O)C(=O)O)C(=O)N[C@@H](CCCCN)C(=O)N[C@H](C(=O)N[C@@H](CC(C)C)C(=O)N[C@@H](CC(C)C)C(=O)N[C@@H](CCC(=O)O)C(=O)N[C@@H](CCC(N)=O)C(=O)N[C@@H](CCC(=O)O)C(=O)N[C@@H](C)C(=O)N[C@@H](CCC(N)=O)C(=O)N[C@@H](CCCCN)C(=O)N[C@@H](CCCCN)C(=O)N[C@@H](CCC(N)=O)C(=O)N[C@@H](CCCNC(=N)N)C(=O)N[C@@H](CCC(=O)O)C(=O)N[C@@H](CCC(N)=O)C(=O)N[C@@H](C)C(=O)N[C@@H](CCC(=O)O)C(=O)N[C@H](C(=O)N[C@@H](CC(N)=O)C(=O)NC(C)(C)C(=O)N[C@@H](CCC(N)=O)C(=O)N[C@H](C(=O)N[C@@H](CC(C)C)C(=O)N[C@@H](C)C(=O)N[C@@H](CCC(N)=O)C(=O)N[C@H](C(N)=O)C(C)C)[C@@H](C)CC)[C@@H](C)O)[C@@H](C)CC)[C@@H](C)CC)C(C)C)C(C)C` [compound 216] (H-[NMeI]VLSLD[dV]PIKLK([γGlu-C20 diacid])KILLEQEAQKKQREQAETN[Aib]QILAQV-NH2), for which the “Emax (% I)” value in assay [1] is listed as 61 % I. In addition, the EC50 in assay [2] turned out to be 0.05 nM.

With `CCCCC(=O)N[C@H](C(=O)N[C@@H](CC(C)C)C(=O)N[C@@H](CO)C(=O)N[C@@H](CC(C)C)C(=O)N[C@@H](CC(=O)O)C(=O)N[C@@H](C(=O)N1CCC[C@H]1C(=O)N[C@H](C(=O)N[C@@H](CCCCN)C(=O)N[C@@H](CC(C)C)C(=O)N[C@@H](CCCCNC(=O)CC[C@H](NC(=O)CCCCCCCCCCCCCCCCCCC(=O)O)C(=O)O)C(=O)N[C@@H](CCCCN)C(=O)N[C@H](C(=O)N[C@@H](CC(C)C)C(=O)N[C@@H](CC(C)C)C(=O)N[C@@H](CCC(=O)O)C(=O)N[C@@H](CCC(N)=O)C(=O)N[C@@H](CCC(=O)O)C(=O)N[C@@H](C)C(=O)N[C@@H](CCC(N)=O)C(=O)N[C@@H](CCCCN)C(=O)N[C@@H](CCCCN)C(=O)N[C@@H](CCC(N)=O)C(=O)N[C@@H](CCCNC(=N)N)C(=O)N[C@@H](CCC(=O)O)C(=O)N[C@@H](CCC(N)=O)C(=O)N[C@@H](C)C(=O)N[C@@H](CCC(=O)O)C(=O)N[C@H](C(=O)N[C@@H](CC(N)=O)C(=O)NC(C)(C)C(=O)N[C@@H](CCC(N)=O)C(=O)N[C@H](C(=O)N[C@@H](CC(C)C)C(=O)N[C@@H](C)C(=O)N[C@@H](CCC(N)=O)C(=O)N[C@H](C(N)=O)C(C)C)[C@@H](C)CC)[C@@H](C)O)[C@@H](C)CC)[C@@H](C)CC)C(C)C)C(C)C` [compound 221] (Pentanoyl-VLSLD[dV]PIKLK([γGlu-C20 diacid])KILLEQEAQKKQREQAETN[Aib]QILAQV-NH2), the “Emax (% I)” value in assay [1] was determined as 79 % I. Besides, the 50% effective concentration (EC50) in assay [2] amounted to 0.18 nM.

As to `CCCCCCCCCCCC(=O)N[C@H](C(=O)N[C@@H](CC(C)C)C(=O)N[C@@H](CO)C(=O)N[C@@H](CC(C)C)C(=O)N[C@@H](CC(=O)O)C(=O)N[C@@H](C(=O)N1CCC[C@H]1C(=O)N[C@H](C(=O)N[C@@H](CCCCN)C(=O)N[C@@H](CC(C)C)C(=O)N[C@@H](CCCCNC(=O)CC[C@H](NC(=O)CCCCCCCCCCCCCCCCCCC(=O)O)C(=O)O)C(=O)N[C@@H](CCCCN)C(=O)N[C@H](C(=O)N[C@@H](CC(C)C)C(=O)N[C@@H](CC(C)C)C(=O)N[C@@H](CCC(=O)O)C(=O)N[C@@H](CCC(N)=O)C(=O)N[C@@H](CCC(=O)O)C(=O)N[C@@H](CCCCN)C(=O)N[C@@H](CCC(N)=O)C(=O)N[C@@H](CCCCN)C(=O)N[C@@H](CCCCN)C(=O)N[C@@H](CCC(N)=O)C(=O)N[C@@H](CCCNC(=N)N)C(=O)N[C@@H](CCC(=O)O)C(=O)N[C@@H](CCC(N)=O)C(=O)N[C@@H](C)C(=O)N[C@@H](CCC(=O)O)C(=O)N[C@H](C(=O)N[C@@H](CC(N)=O)C(=O)NC(C)(C)C(=O)N[C@@H](CCC(N)=O)C(=O)N[C@H](C(=O)N[C@@H](CC(C)C)C(=O)N[C@@H](C)C(=O)N[C@@H](CCC(N)=O)C(=O)N[C@H](C(N)=O)C(C)C)[C@@H](C)CC)[C@@H](C)O)[C@@H](C)CC)[C@@H](C)CC)C(C)C)C(C)C` [compound 224] (Lauroyl-VLSLD[dV]PIKLK([γGlu-C20 diacid])KILLEQEKQKKQREQAETN[Aib]QILAQV-NH2), the “Emax (% I)” value in assay [1] is 66 % I. In addition, the concentration for a half-maximal effect (EC50) in assay [2] worked out at 0.07 nM.

Consider `CCCCCCCCCCCCCC(=O)N[C@H](C(=O)N[C@@H](CC(C)C)C(=O)N[C@@H](CO)C(=O)N[C@@H](CC(C)C)C(=O)N[C@@H](CC(=O)O)C(=O)N[C@@H](C(=O)N1CCC[C@H]1C(=O)N[C@H](C(=O)N[C@@H](CCCCN)C(=O)N[C@@H](CC(C)C)C(=O)N[C@@H](CCCCNC(=O)CC[C@H](NC(=O)CCCCCCCCCCCCCCCCCCC(=O)O)C(=O)O)C(=O)N[C@@H](CCCCN)C(=O)N[C@H](C(=O)N[C@@H](CC(C)C)C(=O)N[C@@H](CC(C)C)C(=O)N[C@@H](CCC(=O)O)C(=O)N[C@@H](CCC(N)=O)C(=O)N[C@@H](CCC(=O)O)C(=O)N[C@@H](CCCCN)C(=O)N[C@@H](CCC(N)=O)C(=O)N[C@@H](CCCCN)C(=O)N[C@@H](CCCCN)C(=O)N[C@@H](CCC(N)=O)C(=O)N[C@@H](CCCNC(=N)N)C(=O)N[C@@H](CCC(=O)O)C(=O)N[C@@H](CCC(N)=O)C(=O)N[C@@H](C)C(=O)N[C@@H](CCC(=O)O)C(=O)N[C@H](C(=O)N[C@@H](CC(N)=O)C(=O)NC(C)(C)C(=O)N[C@@H](CCC(N)=O)C(=O)N[C@H](C(=O)N[C@@H](CC(C)C)C(=O)N[C@@H](C)C(=O)N[C@@H](CCC(N)=O)C(=O)N[C@H](C(N)=O)C(C)C)[C@@H](C)CC)[C@@H](C)O)[C@@H](C)CC)[C@@H](C)CC)C(C)C)C(C)C` [compound 225] (Myristoyl-VLSLD[dV]PIKLK([γGlu-C20 diacid])KILLEQEKQKKQREQAETN[Aib]QILAQV-NH2), for which the “Emax (% I)” value in assay [1] was 70 % I. In assay [2], this molecule registered a half-maximal effective concentration (EC50) of 0.09 nM.

In the case of `CC[C@H](C)[C@H](NC(C)=O)C(=O)N[C@H](C(=O)N[C@@H](CC(C)C)C(=O)N[C@@H](CO)C(=O)N[C@@H](CC(C)C)C(=O)N[C@@H](CC(=O)O)C(=O)N[C@@H](C(=O)N1CCC[C@H]1C(=O)N[C@H](C(=O)NCC(=O)N[C@@H](CC(C)C)C(=O)N[C@@H](CCCCNC(=O)CC[C@H](NC(=O)CCCCCCCCCCCCCCCCCCC(=O)O)C(=O)O)C(=O)N[C@@H](CCCCN)C(=O)N[C@H](C(=O)N[C@@H](CC(C)C)C(=O)N[C@@H](CC(C)C)C(=O)N[C@@H](CCC(=O)O)C(=O)N[C@@H](CCC(N)=O)C(=O)N[C@@H](CCC(=O)O)C(=O)N[C@@H](CCCCN)C(=O)N[C@@H](CCC(N)=O)C(=O)N[C@@H](CCCCN)C(=O)N[C@@H](CCCCN)C(=O)N[C@@H](CCC(N)=O)C(=O)N[C@@H](CCCNC(=N)N)C(=O)N[C@@H](CCC(=O)O)C(=O)N[C@@H](CCC(N)=O)C(=O)N[C@@H](C)C(=O)N[C@@H](CCC(=O)O)C(=O)N[C@H](C(=O)N[C@@H](CC(N)=O)C(=O)NC(C)(C)C(=O)N[C@@H](CCC(N)=O)C(=O)N[C@H](C(=O)N[C@@H](CC(C)C)C(=O)N[C@@H](C)C(=O)N[C@@H](CCC(N)=O)C(=O)N[C@H](C(N)=O)C(C)C)[C@@H](C)CC)[C@@H](C)O)[C@@H](C)CC)[C@@H](C)CC)C(C)C)C(C)C` [compound 226] (Ac-IVLSLD[dV]PIGLK([γGlu-C20 diacid])KILLEQEKQKKQREQAETN[Aib]QILAQV-NH2), the “Emax (% I)” value in assay [1] is recorded as 82 % I. The EC50 is 42.2 nM in assay [1] (cAMP) and 0.18 nM in assay [2].
